What all share (assay type): in vivo
Assay [1] has as its system Shepherd's purse (Capsella bursa-pastoris, CAPBP). The assay can be described thus: Field trial, percent visual weed control of CAPBP. The note with it: 39-51 days after application. As for the experimental part:
(§1) These trials were conducted under field conditions in France, Poland and Syria. Trial sites were located in commercially grown crops wheat, barley and corn. The crops were grown using normal cultural practices for fertilization, seeding, and maintenance to ensure good growth of the crop and the weeds. The trials were conducted using typical small plot herbicide research methodology. Trial plots were between 1 to 2.5 meters (m) wide by 6 to 42 m long. All treatments were applied using a randomized complete block trial design with 2 to 4 replications per treatment. The trial sites had naturally occurring populations of weeds. The weed spectrum included, but was not limited to, wild oat (Avena fatua, AVEFA); Shepherd's purse (Capsella bursa-pastoris, CAPBP); common lambsquarter (Chenopodium album, CHEAL); barnyardgrass (Echinochloa crus-galli, ECHCG); ryegrass (Lolium spp., LOLSS); short-spiked canarygrass (Phalaris brachystachys, PHABR); awned canarygrass (Phalaris paradoxa, PHAPA); narrow-leaved plantain (Plantago lanceolata, PLALA); annual […] (Poa annua, POAAN); and wild buckwheat (Polygonum convolvulus, POLCO).
(§2) Treatments consisted of tank mixes of penoxsulam and pyroxsulam or pyroxsulam+cloquintocet (mexyl) applied in water. Where used, Actirob B adjuvant was applied at use rate of 0.2 to 1 liter per hectare (L/ha) with pyroxsulam containing treatments and in tankmixes. […]

Assay [2] deals with common lambsquarter (Chenopodium album, CHEAL). The assay can be described thus: Field trial, percent visual weed control of CHEAL. To be noted: 39-51 days after application. As for the experimental part: as §1, §2
Assay [3] deals with barnyardgrass (Echinochloa crus-galli, ECHCG). The assay can be described thus: Field trial, percent visual weed control of ECHCG. The note with it: 39-51 days after application. As for the experimental part: as §1, §2
In assay [4] the test system is wild buckwheat (Polygonum convolvulus, POLCO). The assay can be described thus: Field trial, percent visual weed control of POLCO. The note with it: 39-51 days after application. As for the experimental part: as §1, §2
The subject of assay [5] is wild oat (Avena fatua, AVEFA). In words: Field trial, percent visual weed control of AVEFA. To be noted: 28 to 56 days after application. As for the experimental part:
as §1, §2

Assay [6] concerns short-spiked canarygrass (Phalaris brachystachys, PHABR). In words: Field trial, percent visual weed control of PHABR. To be noted: 28 to 56 days after application. As for the experimental part: as §1, §2
In assay [7] the test system is awned canarygrass (Phalaris paradoxa, PHAPA). The assay can be described thus: Field trial, percent visual weed control of PHAPA. To be noted: 28 to 56 days after application. As for the experimental part:
as §1, §2

For assay [8], the system named is ryegrass (Lolium spp., LOLSS). The assay can be described thus: Field trial, percent visual weed control of LOLSS. To be noted: 14 to 61 days after application. As for the experimental part:
as §1, §2

The subject of assay [9] is narrow-leaved plantain (Plantago lanceolata, PLALA). In words: Field trial, percent visual weed control of PLALA. To be noted: 14 to 61 days after application. As for the experimental part:
as §1, §2

Assay [10] concerns annual blackgrass (Poa annua, POANN). The assay can be described thus: Field trial, percent visual weed control of POANN. The note with it: 14 to 61 days after application. As for the experimental part: as §1, §2

Turning to `COc1cnc(OC)n2nc(NS(=O)(=O)c3c(OCC(F)F)cccc3C(F)(F)F)nc12` [Penoxsulam, 2-(2,2-difluoroethoxy)-N-(5,8-dimethoxy-[1,2,4]triazolol1,5-clpyrimidin-2-yl)-6-(trifluoromethyl)benzenesulfonamide], in [1] (penoxsulam 5 g ai/ha alone), the “Control of CAPBP, Obs (Observed Response)” value is 20%. Also, in [2] (penoxsulam 5 g ai/ha alone), the “Control of CHEAL, Obs (Observed Response)” value worked out at 10%. In addition, in assay [3] (penoxsulam 5 g ai/ha alone), the “Control of ECHCG, Obs (Observed Response)” value is recorded as 0%. Besides, in [4] (penoxsulam 5 g ai/ha alone), the “Control of POLCO, Obs (Observed Response)” value is listed as 50%. In addition, the “Control of AVEFA, Obs (Observed Response)” value in [5] (penoxsulam 20 g ai/ha alone) is listed as 0%. In [6] (penoxsulam 20 g ai/ha alone), the “Control of PHABR, Obs (Observed Response)” value amounted to 0%. For the same compound, the “Control of PHAPA, Obs (Observed Response)” value in [7] (penoxsulam 20 g ai/ha alone) is 0%. Moreover, the “Control of LOLSS, Obs (Observed Response)” value in [8] (penoxsulam 20 g ai/ha alone) amounted to 20%. For the same compound, in [9] (penoxsulam 20 g ai/ha alone), the “Control of PLALA, Obs (Observed Response)” value is 13%. In assay [10] (penoxsulam 20 g ai/ha alone), the “Control of POANN, Obs (Observed Response)” value turned out to be 17%.
For `COc1cc(OC)n2nc(NS(=O)(=O)c3c(C(F)(F)F)ccnc3OC)nc2n1` [Pyroxsulam, N-(5,7-dimethoxy[1,2,4]triazolol1,5-alpyrimidin-2-yl)-2-methoxy-4-(trifluoromethyl)-3-pyridinesulfonamide], in assay [1] (pyroxsulam 4 g ai/ha alone), the “Control of CAPBP, Obs (Observed Response)” value came to 70%. Besides, the “Control of CHEAL, Obs (Observed Response)” value in assay [2] (pyroxsulam 4 g ai/ha alone) was determined as 65%. Moreover, the “Control of ECHCG, Obs (Observed Response)” value in assay [3] (pyroxsulam 4 g ai/ha alone) came to 65%. The “Control of POLCO, Obs (Observed Response)” value in assay [4] (pyroxsulam 4 g ai/ha alone) was 35%. Further, the “Control of AVEFA, Obs (Observed Response)” value in [5] (pyroxsulam 18 g ai/ha alone) is given as 65%. Besides, the “Control of PHABR, Obs (Observed Response)” value in assay [6] (pyroxsulam 18 g ai/ha alone) turned out to be 38%. The “Control of PHAPA, Obs (Observed Response)” value in [7] (pyroxsulam 18 g ai/ha alone) is listed as 80%. Besides, the “Control of LOLSS, Obs (Observed Response)” value in [8] (pyroxsulam 20 g ai/ha alone) was determined as 0%. Besides, the “Control of PLALA, Obs (Observed Response)” value in assay [9] (pyroxsulam 20 g ai/ha alone) was 7%. Also, the “Control of POANN, Obs (Observed Response)” value in [10] (pyroxsulam 20 g ai/ha alone) is on record as 0%.

The values are drawn from patent US20120238449A1, “SYNERGISTIC HERBICIDAL COMPOSITION CONTAINING PENOXSULAM AND PYROXSULAM” (priority 2011, published 2012).
